Laboratory results from publication PMC9021288 (Nature Communications, 2022).
Where two headings read alike, the source gives them in different places.

System: TA98, TA100, TA102, TA1535, TA1537
Method: Safety studies were performed by commercial services using their standard protocols. […] Genotoxicity was investigated using the Ames test (Bacterial Reverse Mutation Assay) (Covance Laboratories Ltd, North Yorkshire, England). In vitro mammalian cell micronucleus screening assay was studied in human peripheral blood lymphocytes (BioReliance Corporation, Rockville, USA). Cardiotoxicity was determined against the hERG channel in an automated patch clamp assay using the Qpatch or against the hNaV 1.5, hKV 1.5 and hCaV 1.2 using a manual patch-clamp technique (Metrion Biosciences, Cambridge, UK). Cytotoxicity in human and rat primary hepatocytes was assessed using the CellTiter-Blue assay performed by commercial services (KaLy-Cell). The viability of HepG2 cells was monitored through the addition of 1 mM resazurin. Following 6 h incubation, the relative amount of reduced resazurin was detected in a fluorimeter and compared to the assay controls (vehicle: 0.1% DMSO and positive control: 10 µM puromycin).

Compound: C[C@@H](CNC(=O)[C@H](O)C(C)(C)CO)NC(=O)c1cc(F)c(F)cc1F [MMV693183]
- Fold Increase (TA98, +S-9, 5 ug/plate): 1.1
- Mean (Revertant Numbers Per Plate) (TA98, +S-9, 5 ug/plate): 36.3
- Fold Increase (TA98, +S-9, 16 ug/plate): 1.1
- Mean (Revertant Numbers Per Plate) (TA98, +S-9, 16 ug/plate): 37
- Fold Increase (TA98, +S-9, 50 ug/plate): 1.2
- Mean (Revertant Numbers Per Plate) (TA98, +S-9, 50 ug/plate): 39.7
- Fold Increase (TA98, +S-9, 160 ug/plate): 1.1
- Mean (Revertant Numbers Per Plate) (TA98, +S-9, 160 ug/plate): 36.7
- Fold Increase (TA98, +S-9, 500 ug/plate): 1.3
- Mean (Revertant Numbers Per Plate) (TA98, +S-9, 500 ug/plate): 42.3
- Fold Increase (TA98, +S-9, 1600 ug/plate): 1
- Mean (Revertant Numbers Per Plate) (TA98, +S-9, 1600 ug/plate): 32.3
- Fold Increase (TA98, +S-9, 5000 ug/plate): 0.8
- Mean (Revertant Numbers Per Plate) (TA98, +S-9, 5000 ug/plate): 26.3
- Fold Increase (TA98, -S-9, 5 ug/plate): 0.8
- Mean (Revertant Numbers Per Plate) (TA98, -S-9, 5 ug/plate): 22.3
- Fold Increase (TA98, -S-9, 16 ug/plate): 1.1
- Mean (Revertant Numbers Per Plate) (TA98, -S-9, 16 ug/plate): 29.7
- Fold Increase (TA98, -S-9, 50 ug/plate): 0.9
- Mean (Revertant Numbers Per Plate) (TA98, -S-9, 50 ug/plate): 26.3
- Fold Increase (TA98, -S-9, 160 ug/plate): 0.8
- Mean (Revertant Numbers Per Plate) (TA98, -S-9, 160 ug/plate): 23.7
- Fold Increase (TA98, -S-9, 500 ug/plate): 0.7
- Mean (Revertant Numbers Per Plate) (TA98, -S-9, 500 ug/plate): 20.3
- Fold Increase (TA98, -S-9, 1600 ug/plate): 0.8
- Mean (Revertant Numbers Per Plate) (TA98, -S-9, 1600 ug/plate): 22.7
- Fold Increase (TA98, -S-9, 5000 ug/plate): 1
- Mean (Revertant Numbers Per Plate) (TA98, -S-9, 5000 ug/plate): 26.7
- difference in revertant numbers vs control (TA98, TA100): < 2 fold
- Fold Increase (TA100, +S-9, 5 ug/plate): 0.9
- Mean (Revertant Numbers Per Plate) (TA100, +S-9, 5 ug/plate): 107.3
- Fold Increase (TA100, +S-9, 16 ug/plate): 1
- Mean (Revertant Numbers Per Plate) (TA100, +S-9, 16 ug/plate): 122.7
- Fold Increase (TA100, +S-9, 50 ug/plate): 1.1
- Mean (Revertant Numbers Per Plate) (TA100, +S-9, 50 ug/plate): 128.3
- Fold Increase (TA100, +S-9, 160 ug/plate): 1
- Mean (Revertant Numbers Per Plate) (TA100, +S-9, 160 ug/plate): 114.7
- Fold Increase (TA100, +S-9, 500 ug/plate): 1.1
- Mean (Revertant Numbers Per Plate) (TA100, +S-9, 500 ug/plate): 135
- Fold Increase (TA100, +S-9, 1600 ug/plate): 0.9
- Mean (Revertant Numbers Per Plate) (TA100, +S-9, 1600 ug/plate): 104
- Fold Increase (TA100, +S-9, 5000 ug/plate): 1
- Mean (Revertant Numbers Per Plate) (TA100, +S-9, 5000 ug/plate): 115.7
- Fold Increase (TA100, -S-9, 5 ug/plate): 1.1
- Mean (Revertant Numbers Per Plate) (TA100, -S-9, 5 ug/plate): 99.3
- Fold Increase (TA100, -S-9, 16 ug/plate): 1.1
- Mean (Revertant Numbers Per Plate) (TA100, -S-9, 16 ug/plate): 94
- Fold Increase (TA100, -S-9, 50 ug/plate): 1.2
- Mean (Revertant Numbers Per Plate) (TA100, -S-9, 50 ug/plate): 108.3
- Fold Increase (TA100, -S-9, 160 ug/plate): 1
- Mean (Revertant Numbers Per Plate) (TA100, -S-9, 160 ug/plate): 86.3
- Fold Increase (TA100, -S-9, 500 ug/plate): 1.1
- Mean (Revertant Numbers Per Plate) (TA100, -S-9, 500 ug/plate): 93
- Fold Increase (TA100, -S-9, 1600 ug/plate): 1.2
- Mean (Revertant Numbers Per Plate) (TA100, -S-9, 1600 ug/plate): 102
- Fold Increase (TA100, -S-9, 5000 ug/plate): 1.1
- Mean (Revertant Numbers Per Plate) (TA100, -S-9, 5000 ug/plate): 93
- difference in revertant numbers vs control (TA102): < 1.5 fold
- Fold Increase (TA102, +S-9, 5 ug/plate): 1.3
- Mean (Revertant Numbers Per Plate) (TA102, +S-9, 5 ug/plate): 285
- Fold Increase (TA102, +S-9, 16 ug/plate): 1.3
- Mean (Revertant Numbers Per Plate) (TA102, +S-9, 16 ug/plate): 295.7
- Fold Increase (TA102, +S-9, 50 ug/plate): 1.3
- Mean (Revertant Numbers Per Plate) (TA102, +S-9, 50 ug/plate): 295
- Fold Increase (TA102, +S-9, 160 ug/plate): 1.3
- Mean (Revertant Numbers Per Plate) (TA102, +S-9, 160 ug/plate): 298.7
- Fold Increase (TA102, +S-9, 500 ug/plate): 1.3
- Mean (Revertant Numbers Per Plate) (TA102, +S-9, 500 ug/plate): 283
- Fold Increase (TA102, +S-9, 1600 ug/plate): 1.1
- Mean (Revertant Numbers Per Plate) (TA102, +S-9, 1600 ug/plate): 257
- Fold Increase (TA102, +S-9, 5000 ug/plate): 0.8
- Mean (Revertant Numbers Per Plate) (TA102, +S-9, 5000 ug/plate): 184.3
- Fold Increase (TA102, -S-9, 5 ug/plate): 1
- Mean (Revertant Numbers Per Plate) (TA102, -S-9, 5 ug/plate): 245.7
- Fold Increase (TA102, -S-9, 16 ug/plate): 1.1
- Mean (Revertant Numbers Per Plate) (TA102, -S-9, 16 ug/plate): 251.3
- Fold Increase (TA102, -S-9, 50 ug/plate): 1.1
- Mean (Revertant Numbers Per Plate) (TA102, -S-9, 50 ug/plate): 256.3
- Fold Increase (TA102, -S-9, 160 ug/plate): 1
- Mean (Revertant Numbers Per Plate) (TA102, -S-9, 160 ug/plate): 240
- Fold Increase (TA102, -S-9, 500 ug/plate): 0.9
- Mean (Revertant Numbers Per Plate) (TA102, -S-9, 500 ug/plate): 202.7
- Fold Increase (TA102, -S-9, 1600 ug/plate): 0.8
- Mean (Revertant Numbers Per Plate) (TA102, -S-9, 1600 ug/plate): 181.7
- Fold Increase (TA102, -S-9, 5000 ug/plate): 0.1
- Mean (Revertant Numbers Per Plate) (TA102, -S-9, 5000 ug/plate): 26.7
- Fold Increase (TA1535, +S-9, 5 ug/plate): 0.9
- Mean (Revertant Numbers Per Plate) (TA1535, +S-9, 5 ug/plate): 20.7
- Fold Increase (TA1535, +S-9, 16 ug/plate): 0.8
- Mean (Revertant Numbers Per Plate) (TA1535, +S-9, 16 ug/plate): 19.3
- Fold Increase (TA1535, +S-9, 50 ug/plate): 1
- Mean (Revertant Numbers Per Plate) (TA1535, +S-9, 50 ug/plate): 23.3
- Fold Increase (TA1535, +S-9, 160 ug/plate): 1.1
- Mean (Revertant Numbers Per Plate) (TA1535, +S-9, 160 ug/plate): 25
- Fold Increase (TA1535, +S-9, 500 ug/plate): 0.8
- Mean (Revertant Numbers Per Plate) (TA1535, +S-9, 500 ug/plate): 17.7
- Fold Increase (TA1535, +S-9, 1600 ug/plate): 1
- Mean (Revertant Numbers Per Plate) (TA1535, +S-9, 1600 ug/plate): 24
- Fold Increase (TA1535, +S-9, 5000 ug/plate): 1
- Mean (Revertant Numbers Per Plate) (TA1535, +S-9, 5000 ug/plate): 22.7
- Fold Increase (TA1535, -S-9, 5 ug/plate): 1.4
- Mean (Revertant Numbers Per Plate) (TA1535, -S-9, 5 ug/plate): 35
- Fold Increase (TA1535, -S-9, 16 ug/plate): 0.8
- Mean (Revertant Numbers Per Plate) (TA1535, -S-9, 16 ug/plate): 20.7
- Fold Increase (TA1535, -S-9, 50 ug/plate): 0.9
- Mean (Revertant Numbers Per Plate) (TA1535, -S-9, 50 ug/plate): 22
- Fold Increase (TA1535, -S-9, 160 ug/plate): 0.9
- Mean (Revertant Numbers Per Plate) (TA1535, -S-9, 160 ug/plate): 24
- Fold Increase (TA1535, -S-9, 500 ug/plate): 1.2
- Mean (Revertant Numbers Per Plate) (TA1535, -S-9, 500 ug/plate): 29.3
- Fold Increase (TA1535, -S-9, 1600 ug/plate): 1
- Mean (Revertant Numbers Per Plate) (TA1535, -S-9, 1600 ug/plate): 26
- Fold Increase (TA1535, -S-9, 5000 ug/plate): 0.9
- Mean (Revertant Numbers Per Plate) (TA1535, -S-9, 5000 ug/plate): 22
- difference in revertant numbers vs control (TA1535, TA1537): < 3 fold
- Fold Increase (TA1537, +S-9, 5 ug/plate): 1.4
- Mean (Revertant Numbers Per Plate) (TA1537, +S-9, 5 ug/plate): 10
- Fold Increase (TA1537, +S-9, 16 ug/plate): 1.1
- Mean (Revertant Numbers Per Plate) (TA1537, +S-9, 16 ug/plate): 7.7
- Fold Increase (TA1537, +S-9, 50 ug/plate): 1.9
- Mean (Revertant Numbers Per Plate) (TA1537, +S-9, 50 ug/plate): 13.3
- Fold Increase (TA1537, +S-9, 160 ug/plate): 1
- Mean (Revertant Numbers Per Plate) (TA1537, +S-9, 160 ug/plate): 7.3
- Fold Increase (TA1537, +S-9, 500 ug/plate): 1.6
- Mean (Revertant Numbers Per Plate) (TA1537, +S-9, 500 ug/plate): 11
- Fold Increase (TA1537, +S-9, 1600 ug/plate): 1.4
- Mean (Revertant Numbers Per Plate) (TA1537, +S-9, 1600 ug/plate): 9.7
- Fold Increase (TA1537, +S-9, 5000 ug/plate): 1
- Mean (Revertant Numbers Per Plate) (TA1537, +S-9, 5000 ug/plate): 7.3
- Fold Increase (TA1537, -S-9, 5 ug/plate): 1.1
- Mean (Revertant Numbers Per Plate) (TA1537, -S-9, 5 ug/plate): 7.7
- Fold Increase (TA1537, -S-9, 16 ug/plate): 0.9
- Mean (Revertant Numbers Per Plate) (TA1537, -S-9, 16 ug/plate): 6.3
- Fold Increase (TA1537, -S-9, 50 ug/plate): 1
- Mean (Revertant Numbers Per Plate) (TA1537, -S-9, 50 ug/plate): 6.7
- Fold Increase (TA1537, -S-9, 160 ug/plate): 0.8
- Mean (Revertant Numbers Per Plate) (TA1537, -S-9, 160 ug/plate): 5.3
- Fold Increase (TA1537, -S-9, 500 ug/plate): 1
- Mean (Revertant Numbers Per Plate) (TA1537, -S-9, 500 ug/plate): 7.3
- Fold Increase (TA1537, -S-9, 1600 ug/plate): 0.9
- Mean (Revertant Numbers Per Plate) (TA1537, -S-9, 1600 ug/plate): 6
- Fold Increase (TA1537, -S-9, 5000 ug/plate): 0.6
- Mean (Revertant Numbers Per Plate) (TA1537, -S-9, 5000 ug/plate): 4
